The experiment is described as follows: MAGI-CCR5 and HeLa-R5-16 cytotoxicity, dose response, cytotoxicity control for HIV-1 fusion inhibitor project, cell-based, MAGI and MAGI-HeLa co-culture (AID 2286).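 On all read-outs here: cells exposed to compound for at least 64 h before ATP readout; 100% = median of DMSO vehicle wells with no ATP signal meaning 0%.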 The following applies: MAGI-CCR5 cells viability, CellTiter-Glo ATP luminescence; for minimum viability: measured here: MAGI minimum viability across doses. A general note: Cellular ATP, detected with luciferase, serves as a proxy for viable cell number.

The mark [1] stands for this setting: MAGI-HeLa co-culture viability, at 50 µM, stronger effect = lower value.
The mark [2] stands for this setting: at 1.56 µM, stronger effect = lower value.
Where [3] appears, read: at 12.5 µM, stronger effect = lower value.
The mark [4] stands for this setting: at 6.25 µM, stronger effect = lower value.
The mark [5] stands for this setting: at 3.13 µM, stronger effect = lower value.

Activity calls are given as the source filed them.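 How the source made its calls: active means minimum cell viability of 80% or lower across the dose range, counted as toxic; inactive means minimum cell viability above 80%.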

By viability is commonly meant a read-out of living cells in per cent, often relative to untreated cells. Consider `COc1cc(/C=N/NS(=O)(=O)c2ccc3ccccc3c2)ccc1OCc1ccc(C(=O)O)cc1`, for which the viability is 115% under setting [1] and 93.7% (inactive) (at 50 µM (top of the series)). Where the note is “at 25 µM, stronger effect = lower value”, this compound yielded a minimum viability of 85.7%.

For the compound `CCc1nnc(NS(=O)(=O)c2ccc(NC(=O)/C=C/c3ccccc3Cl)cc2)s1`, the viability runs as follows: under setting [1], 109%; (at 50 µM (top of the series)) 96.3% (inactive). Under setting [2], this compound showed a minimum viability of 95.9%.

`COc1ccc(/C=C2/SC(=O)N(CCCCCC(=O)Nc3ccccc3C(=O)O)C2=S)cc1`: the viability under setting [1] was 122%. For the setting “at 50 µM, stronger effect = lower value”, this compound had a minimum viability of 66.9%.

Regarding `CN1C(=O)/C(=C/c2ccc(C(=O)Nc3ccc(O)cc3C(=O)O)cc2)SC1=S`, the viability under setting [1] is 104% and the viability (at 50 µM (top of the series)) is 91% (inactive). Further, under setting [3], the minimum viability was 87.9%.

With `COc1ccc(OC)c(N2C(=O)/C(=C/c3ccco3)C(=O)NC2=S)c1`, the viability runs as follows: under setting [1], 90.2%; (at 50 µM (top of the series)) 94.8% (inactive). The minimum viability under setting [4] was determined as 83.8%.

Turning to `COC(=O)c1sc(-c2ccc(C(C)(C)C)cc2)cc1NC(=O)c1ccccc1C(=O)O`, the viability under setting [1] was 111%. In addition, the minimum viability (at 50 µM, stronger effect = lower value) was 73.7%.

Turning to `COc1cc(/C=C2\C(=N)N3N=C(S(C)(=O)=O)SC3=NC2=O)ccc1OC(=O)c1cccs1`, the viability under setting [1] was 109% and the viability (at 50 µM (top of the series)) is 96.7% (inactive). The same compound registered a minimum viability (at 0.2 µM, stronger effect = lower value) of 86.5%.

`O=C1NN(c2ccc(Cl)cc2)C(=O)/C1=C\c1ccc(-c2cccc(C(=O)O)c2)o1`: the viability runs as follows: under setting [1], 81.8%; (at 50 µM (top of the series)) 83.3% (inactive). The compound further showed a minimum viability (at 50 µM, stronger effect = lower value) of 83.3%.

For `Cc1ccc(-c2nn(-c3ccccc3)cc2/C=C2\SC(=S)N(CC(=O)O)C2=O)cc1`, the viability is, setting by setting: under setting [1], 92.3%; (at 50 µM (top of the series)) 81.7% (inactive). The compound further had a minimum viability (at 25 µM, stronger effect = lower value) of 80.9%.

As for `O=C(O)/C(CC(=O)c1ccc(Cl)cc1)=N/Nc1ccc([N+](=O)[O-])cc1[N+](=O)[O-]`, the viability is, setting by setting: under setting [1], 114%; (at 50 µM (top of the series)) 84% (inactive). Moreover, where the note is “at 50 µM, stronger effect = lower value”, the minimum viability came out at 84%.

In the case of `Cc1c(CCC(=O)O)c(=O)oc2c(C)c3occ(-c4ccc(Cl)cc4)c3cc12`, the viability under setting [1] stood at 117%. The compound further displayed a minimum viability (at 25 µM, stronger effect = lower value) of 64%.

As to `O=C(O)COc1ccccc1/C=N/NC(=O)CSc1nnc(SCc2cccc3ccccc23)s1`, the viability by setting is: under setting [1], 106%; (at 50 µM (top of the series)) 92.5% (inactive). Besides, the minimum viability under setting [4] was 86.9%.

Turning to `CCS(=O)(=O)C1=NN2C(=N)/C(=C\c3ccc(OS(=O)(=O)c4ccccc4)c(OC)c3)C(=O)N=C2S1`, the viability was 97.9% under setting [1] and 85.5% (inactive) (at 50 µM (top of the series)). In addition, the minimum viability under setting [2] was 82.4%.

On to `CC(c1ccccc1)N1C(=O)c2ccc(C(=O)Nc3ccc(Br)cc3C(=O)O)cc2C1=O` (configuration not stated), for which the viability was 118% under setting [1] and 96.8% (inactive) (at 50 µM (top of the series)). Besides, the minimum viability under setting [5] came out at 86.6%.

For `O=c1/c(=C\c2cc([N+](=O)[O-])cc([N+](=O)[O-])c2O)sc2nc3ccccc3n12`, the viability under setting [1] worked out at 115% and the viability (at 50 µM (top of the series)) was 104% (inactive). The minimum viability under setting [4] is 97.5%.

Take `CC1(C)CC(=O)C2=C(C1)c1c(ccc3ccccc13)NC2c1cc([N+](=O)[O-])cc([N+](=O)[O-])c1O` (configuration not stated): the viability under setting [1] came out at 107%. Under “at 50 µM, stronger effect = lower value”, this compound registered a minimum viability of 56%.

As to `O=C(O)CSc1cc(C(=O)c2ccccc2O)cn2c(=O)c3c4c(sc3nc12)CCCC4`, the viability under setting [1] was determined as 114% and the viability (at 50 µM (top of the series)) was 93.2% (inactive). Also, the minimum viability under setting [3] stood at 92.1%.

As to `O=C(O)CSc1cc(C(=O)c2cc(F)ccc2O)cn2c(=O)c3c(-c4ccccc4)csc3nc12`, the viability under setting [1] was 88%. Also, the minimum viability (at 50 µM, stronger effect = lower value) is 56.4%.

For `O=C1N=c2ccc(Br)cc2=C1c1sc(=S)n(NS(=O)(=O)c2ccccc2)c1O`, the viability reads like this: under setting [1], 89.2%; (at 50 µM (top of the series)) 102% (inactive). Further, the minimum viability under setting [5] turned out to be 98.5%.

The values above are taken from PubChem BioAssay AID2286 (Southern Research Specialized Biocontainment Screening …, 2010).
